Data reported in article PMC3634983 (Clinical Drug Investigation, 2013).
Where two headings read alike, the source gives them in different places.

Tests used:
[1] = assay type: in vivo, human; conditions: for detectability in plasma: after single oral doses of dabigatran etexilate; for AUC(0-inf) / Cmax / Tmax: human, plasma, po
healthy subjects [2] = experiment: Thorough QT study: ECG profiles; assay type: in vivo, human; conditions: for Adjusted mean (SE) ∆ QTcI: time-matched change from baseline between 1.5 and 3 h post-dose, n=40; for ∆∆HR / ∆∆QTcI / ∆∆QT: mean (90 % CI)
healthy subjects [3] = experiment: Safety and tolerability evaluation; assay type: in vivo, human
[4] = cited from earlier work
[5] = tested on: activated partial thromboplastin time; conditions: 600 mg dose; achieved at 2–4 h post-dose; pilot study; cited from earlier work
healthy subjects [6] = conditions: after a single dose; cited from earlier work
[7] = following an oral dose without food; cited from earlier work
healthy subjects [8] = assay type: in vivo, human
anaesthetised pigs = conditions: up to 3 mg/kg intravenously; cited from earlier work
[9] = tested on: isolated guinea pig papillary muscles; conditions: concentrations up to 10 μmol/L; cited from earlier work
[10] = tested on: hERG-mediated potassium current; conditions: human embryonic kidney cells; cited from earlier work
[11] = cited from earlier work; remark: listed apart in the source
[12] = dabigatran etexilate 150 mg, 1:00 h post-dose
[13] = dabigatran etexilate 150 mg, 1:30 h post-dose
[14] = dabigatran etexilate 150 mg, 2:00 h post-dose
[15] = dabigatran etexilate 150 mg, 3:00 h post-dose
[16] = dabigatran etexilate 150 mg, 6:00 h post-dose
[17] = dabigatran etexilate 150 mg, 12:00 h post-dose
[18] = dabigatran etexilate 150 mg, 24:00 h post-dose
[19] = dabigatran etexilate 150 mg, between 1 and 6 h post-dose
[20] = dabigatran etexilate 600 mg, 1:00 h post-dose
[21] = dabigatran etexilate 600 mg, 1:30 h post-dose
[22] = dabigatran etexilate 600 mg, 2:00 h post-dose
[23] = dabigatran etexilate 600 mg, 3:00 h post-dose
[24] = dabigatran etexilate 600 mg, 6:00 h post-dose
[25] = dabigatran etexilate 600 mg, 12:00 h post-dose
[26] = dabigatran etexilate 600 mg, 24:00 h post-dose
[27] = dabigatran etexilate 600 mg, between 1 and 6 h post-dose
[28] = moxifloxacin 400 mg, 1:00 h post-dose
[29] = moxifloxacin 400 mg, 1:30 h post-dose
[30] = moxifloxacin 400 mg, 2:00 h post-dose
[31] = moxifloxacin 400 mg, 3:00 h post-dose
[32] = moxifloxacin 400 mg, 6:00 h post-dose
[33] = at gMean Cmax of dabigatran etexilate 150 mg dose
[34] = at gMean Cmax of dabigatran etexilate 600 mg dose
[35] = exposure-response analysis for placebo-corrected CfB of HR, post hoc
[36] = exposure-response analysis for placebo-corrected CfB of QTcI, post hoc

## CCOC(=O)CCN(C(=O)c1ccc2c(c1)nc(CNc1ccc(C(=N)N)cc1)n2C)c1ccccn1 [BIBR951]
[1]
  detectability in plasma: only detectable between 0.5 and 3 h post-dosing and then only in very low concentrations

## CCCCCCOC(=O)NC(=N)c1ccc(NCc2nc3cc(C(=O)N(CCC(=O)O)c4ccccn4)ccc3n2C)cc1 [BIBR1087]
[1]
  detectability in plasma: only detectable between 0.5 and 3 h post-dosing and then only in very low concentrations

## CCCCCCOC(=O)NC(=N)c1ccc(NCc2nc3cc(C(=O)N(CCC(=O)OCC)c4ccccn4)ccc3n2C)cc1 [Dabigatran etexilate]
Healthy subjects [2]; both dose levels (150 mg and 600 mg), 0.5 to 24 h post-dose
  upper bound of the two-sided 90 % CI of the largest time-matched mean difference from placebo (QTcI): 3 to 4 ms
Healthy subjects [2]; both doses (150 mg and 600 mg)
  upper limit of 95 % CI, secondary endpoints (QTcI versus placebo): below 4 ms
  upper limit of the 95 % CI, primary endpoint (QTcI versus placebo): approximately 1.5 ms
Healthy subjects [2]; dabigatran etexilate 150 mg single oral dose
  Adjusted mean (SE) ∆ QTcI: −4.9 (1.1) ms
Healthy subjects [2]; [12]
  ∆∆HR: 0.7 (−0.5 to 1.8) bpm
  ∆∆QTcI: −0.1 (−2.5 to 2.2) ms
Healthy subjects [2]; [13]
  ∆∆HR: −0.3 (−1.4 to 0.8) bpm
  ∆∆QT: −0.6 (−3.3 to 2.1) ms
  ∆∆QTcI: −1.4 (−3.2 to 0.4) ms
Healthy subjects [2]; [14]
  ∆∆HR: −0.3 (−1.5 to 0.8) bpm
  ∆∆QT: −0.2 (−2.9 to 2.6) ms
  ∆∆QTcI: −0.7 (−2.9 to 1.6) ms
Healthy subjects [2]; [15]
  ∆∆QT: −1.9 (−4.9 to 1.0) ms
  ∆∆QTcI: −1.1 (−3.3 to 1.2) ms
Healthy subjects [2]; [16]
  ∆∆QT: −0.5 (−3.8 to 2.7) ms
  ∆∆QTcI: −0.4 (−3.0 to 2.2) ms
Healthy subjects [2]; [17]
  ∆∆HR: −0.4 (−1.7 to 0.9) bpm
  ∆∆QT: 1.3 (−1.8 to 4.5) ms
  ∆∆QTcI: 0.9 (−1.7 to 3.5) ms
Healthy subjects [2]; [18]
  ∆∆HR: −0.1 (−1.1 to 1.0) bpm
  ∆∆QT: −0.2 (−2.8 to 2.5) ms
  ∆∆QTcI: −0.1 (−1.9 to 1.7) ms
Healthy subjects [2]; [19]
  mean time-matched CfB of QTcI: -5.3 ms
  upper bound of the two-sided 90 % CI of placebo-adjusted CfB of QTcI: 1.5 ms
Healthy subjects [2]; dabigatran etexilate 150 mg, between 1.5 and 3 h post-dose
  upper bound of the two-sided 90 % CI of placebo-adjusted CfB of QTcI: 1.4 ms
Healthy subjects [2]; dabigatran etexilate 600 mg single oral dose
  Adjusted mean (SE) ∆ QTcI: −5.0 (1.1) ms
Healthy subjects [2]; [20]
  ∆∆HR: 0.5 (−0.6 to 1.6) bpm
  ∆∆QT: −1.8 (−5.2 to 1.5) ms
  ∆∆QTcI: −1.5 (−3.8 to 0.9) ms
Healthy subjects [2]; [21]
  ∆∆HR: −0.3 (−1.5 to 0.8) bpm
  ∆∆QT: −0.6 (−3.3 to 2.1) ms
  ∆∆QTcI: −1.7 (−3.5 to 0.2) ms
Healthy subjects [2]; [22]
  ∆∆HR: −1.1 (−2.2 to 0.1) bpm
  ∆∆QT: −0.9 (−3.7 to 1.8) ms
  ∆∆QTcI: −2.6 (−4.8 to −0.4) ms
Healthy subjects [2]; [23]
  ∆∆HR: 1.5 (−0.1 to 2.9) bpm
  ∆∆QT: −2.9 (−5.8 to 0.1) ms
  ∆∆QTcI: −1.1 (−3.3 to 1.1) ms
Healthy subjects [2]; [24]
  ∆∆HR: 0.6 (−0.7 to 1.9) bpm
  ∆∆QT: −1.1 (−4.3 to 2.2) ms
  ∆∆QTcI: −0.8 (−3.4 to 1.8) ms
Healthy subjects [2]; [25]
  ∆∆HR: −0.2 (−1.5 to 1.1) bpm
  ∆∆QT: 1.0 (−2.1 to 4.2) ms
  ∆∆QTcI: 0.4 (−2.2 to 3.0) ms
Healthy subjects [2]; [26]
  ∆∆HR: 1.1 (0.0 to 2.2) bpm
  ∆∆QTcI: −1.6 (−3.4 to 0.2) ms
Healthy subjects [2]; [27]
  mean time-matched CfB of QTcI: -5.4 ms
  upper bound of the two-sided 90 % CI of placebo-adjusted CfB of QTcI: 1.4 ms
Healthy subjects [2]; dabigatran etexilate 600 mg, between 1.5 and 3 h post-dose
  upper bound of the two-sided 90 % CI of placebo-adjusted CfB of QTcI: 1.3 ms
Healthy subjects [2]; either dabigatran etexilate dose
  prolongation of QTcN, QTcF, uncorrected QT and QTcB: none of these parameters was prolonged
Healthy subjects [2]; overall study result
  prolongation of the QT interval: ≤ 5 ms
Healthy subjects [2]; therapeutic (150 mg) and supratherapeutic (600 mg) doses
  QT prolongation or arrhythmogenic effects (conclusion): not associated with QT prolongation or arrhythmogenic effects
[1]
  detectability in plasma: only detectable between 0.5 and 3 h post-dosing and then only in very low concentrations
[1]; dabigatran etexilate 600 mg versus 150 mg
  Mean Cmax with 600 mg relative to 150 mg dose: approximately fourfold higher
[1]; versus patients receiving dabigatran etexilate 150 mg once daily
  Cmax after 600 mg relative to steady-state concentration in patients: 4 times
[1]; versus patients receiving dabigatran etexilate 150 mg twice daily
  Cmax after 600 mg relative to steady-state concentration in patients: 2.6 times
Healthy subjects [3]; dabigatran etexilate 150 mg, three subjects of 40
  subjects with adverse events within the treatment period: 7.5%
Healthy subjects [3]; dabigatran etexilate 600 mg, four subjects of 40
  subjects with adverse events within the treatment period: 10%
Healthy subjects [3]; single oral doses of 150 mg and 600 mg
  tolerability: well tolerated
[4]; patients receiving dabigatran etexilate 150 mg once daily
  steady-state concentration: 99.2 ng/mL
[4]; patients receiving dabigatran etexilate 150 mg twice daily
  steady-state concentration: 146 ng/mL
[5]
  increase in activated partial thromboplastin time: two- to threefold increase

## COc1c(N2C[C@@H]3CCCN[C@@H]3C2)c(F)cc2c(=O)c(C(=O)O)cn(C3CC3)c12 [Moxifloxacin, moxifloxacin]
Healthy subjects [2]; [28]
  ∆∆HR: 2.4 (0.9 to 3.8) bpm
  ∆∆QT: 8.3 (4.7 to 11.9) ms
  ∆∆QTcI: 11.1 (8.4 to 13.8) ms
Healthy subjects [2]; [29]
  ∆∆HR: 1.3 (0.1 to 2.5) bpm
  ∆∆QT: 11.9 (8.3 to 15.5) ms
  ∆∆QTcI: 12.8 (10.2 to 15.6) ms
Healthy subjects [2]; [30]
  ∆∆HR: 0.4 (−1.0 to 1.7) bpm
  ∆∆QT: 13.6 (10.4 to 16.9) ms
  ∆∆QTcI: 14.1 (11.7 to 16.5) ms
Healthy subjects [2]; moxifloxacin 400 mg, 2:00 h post-dose, listed as moxifloxacin
  ∆∆QTcI: 14.1 ms
Healthy subjects [2]; [31]
  ∆∆HR: 2.7 (1.1 to 4.4) bpm
  ∆∆QT: 10.3 (6.9 to 13.8) ms
  ∆∆QTcI: 14.1 (11.4 to 16.7) ms
Healthy subjects [2]; [32]
  ∆∆HR: 1.5 (0.1 to 2.8) bpm
  ∆∆QT: 9.2 (6.1 to 12.2) ms
  ∆∆QTcI: 10.4 (8.0 to 12.8) ms
Healthy subjects [2]; moxifloxacin 400 mg, placebo-corrected change from baseline between 1.5 and 3 h post-dose
  Mean (SE) [90 % CI] ∆∆ QTcI: 14.2 ms
Healthy subjects [3]; investigator-assessed
  Global tolerability (good / satisfactory / not satisfactory / bad): one subject who responded ‘not satisfactory’
Healthy subjects [3]; moxifloxacin 400 mg, one subject of 40 ('feeling dazed')
  subjects with adverse events within the treatment period: 2.5%
Healthy subjects [6]
  QT-interval prolongation: 8 to 14 ms
[7]
  time of peak plasma concentration: 1 to 4 h

## [H]/N=C(/N)c1ccc(NCc2nc3cc(C(=O)N(CCC(=O)O)c4ccccn4)ccc3n2C)cc1 [dabigatran]
Healthy subjects [8]; [33]
  Predicted value of ∆∆HR at Cmax (90 % CI): 0.3 (−0.4 to 1.0) bpm
  Predicted value of ∆∆QTcI at Cmax (90 % CI): 0.4 (−0.9 to 1.7) ms
Healthy subjects [8]; [34]
  Predicted value of ∆∆HR at Cmax (90 % CI): 0.4 (−0.9 to 1.7) bpm
  Predicted value of ∆∆QTcI at Cmax (90 % CI): 0.5 (−1.5 to 2.6) ms
Healthy subjects [8]; [35]
  PK-∆∆HR intercept: 0.26 bpm
  PK-∆∆HR slope: 0.0005 bpm/[ng/mL]
Healthy subjects [8]; [36]
  PK-∆∆QTcI intercept: 0.34 ms
  PK-∆∆QTcI slope: ~0 ms/[ng/mL]
Healthy subjects [8]; exposure-response analysis for placebo-corrected CfB of QTcI, post hoc, listed as Free non-conjugated dabigatran
  PK-∆∆QTcI slope: 0.0006 ms/[ng/mL]
Healthy subjects [8]; total and free dabigatran, each dose (all four analyses)
  90 % CI of the predicted value of placebo-corrected CfB of QTcI at gMean Cmax: below 3 ms
[1]; 150 mg
  AUC(0-inf): 540 ng·h/mL
  Cmax: 71.4 ng/mL
  Tmax: 2.03 h
[1]; 600 mg
  AUC(0-inf): 2230 ng·h/mL
  Cmax: 281 ng/mL
  Tmax: 3 h
Anaesthetised pigs
  influence on cardiovascular parameters: no influence on cardiovascular parameters
[9]
  changes in QT interval: no noteworthy changes in QT interval
[10]
  effect on hERG-mediated potassium current: did not modify the hERG-mediated potassium current
[11]
  half-life: 12 to 17 h
